# Experimental data as given in ChEMBL document CHEMBL1154349, “Syntheses of aminoalcohol-derived macrocycles leading to a small-molecule binder to and inhibitor of Sonic Hedgehog” (Bioorg Med Chem Lett, 2009).
# The source made the active and inactive calls. The calls are words filed in the database; no cut-off is given here.
# Assays:
# [1] = Cytotoxicity against mouse Shh Light2 cells by cell titer glo assay; type: cell-based; details: shh light ii
# [2] = biological target: Sonic hedgehog protein (Mus musculus) (UniProt Q62226); test: Inhibition of SHH in mouse Ptch deffective MEF cells after 30 hrs by Gli-responsive beta-galactosidse reporter gene assay; type: cell-based
# [3] = biological target: Sonic hedgehog protein (Mus musculus) (UniProt Q62226); test: Inhibition of SHH in mouse Shh Light2 cells after 30 hrs by GLI-responsive bright glo luciferase reporter gene assay relative to cyclopamine; type: functional, cell-based; details: Shh Light II
# [4] = biological target: Sonic hedgehog protein (Mus musculus) (UniProt Q62226); test: (§1) Inhibition of SHH in mouse Shh Light2 cells after 30 hrs by GLI-responsive bright glo luciferase reporter gene assay; type: functional, cell-based; details: Shh Light II
# Sonic hedgehog protein [5] = biological target: Sonic hedgehog protein (Homo sapiens, UniProt Q15465); test: Binding affinity to recombinant Shh N-terminal peptide by surface plasma resonance
# Sonic hedgehog protein (Homo sapiens, UniProt Q15465), sequence (Q15465 24-197 limits assumed): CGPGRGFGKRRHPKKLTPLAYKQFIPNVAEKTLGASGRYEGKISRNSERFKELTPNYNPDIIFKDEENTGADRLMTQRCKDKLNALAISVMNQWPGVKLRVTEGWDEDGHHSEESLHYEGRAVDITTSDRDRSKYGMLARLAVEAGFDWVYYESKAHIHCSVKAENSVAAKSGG
# [6] = biological target: Sonic hedgehog protein (Mus musculus) (UniProt Q62226); test: Inhibition of SHH in mouse Shh Light2 cells after 30 hrs by GLI-responsive bright glo luciferase reporter gene assay relative to 6 uM cyclopamine; type: functional, cell-based; details: Shh Light II
# Sonic hedgehog protein [7] = biological target: Sonic hedgehog protein (Mus musculus, UniProt Q62226); test: as §1; type: functional, cell-based, Shh Light II
# Sonic hedgehog protein (Mus musculus, UniProt Q62226), sequence (Q62226 25-198 limits assumed): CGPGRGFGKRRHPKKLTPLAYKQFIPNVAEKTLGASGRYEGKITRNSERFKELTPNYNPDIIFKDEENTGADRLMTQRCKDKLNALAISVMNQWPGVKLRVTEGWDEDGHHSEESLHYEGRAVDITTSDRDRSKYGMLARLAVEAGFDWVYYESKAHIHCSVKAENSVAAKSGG
# [8] = biological target: Sonic hedgehog protein (Mus musculus) (UniProt Q62226); test: Inhibition of SHH in mouse Shh Light2 cells after 30 hrs by GLI-responsive bright glo luciferase reporter gene assay at 15.6 uM relative to 6 uM cyclopamine; type: functional, cell-based; details: Shh Light II
inhibition [2],Activity (Sonic hedgehog protein [5]),Structure (SMILES),Activity [1],further results
inactive,,O=C(C[C@H]1C/C=C/CCCC(=O)O[C@H](c2ccccc2)CNC1=O)NCc1ccc(Cl)cc1,Non-toxic,ECmax [3]: 71%
inactive,,O=C(C[C@H]1C/C=C/CCCCC(=O)OCCNC1=O)NCc1ccc(Cl)cc1,Non-toxic,
inactive,Dose-dependent effect,O=C(C[C@H]1C/C=C/CCC(=O)O[C@H](c2ccccc2)CNC1=O)NCc1ccc(Cl)cc1,Non-toxic,ECmax [4]: 62.5 µM
inactive,Dose-dependent effect,O=C(C[C@@H]1C/C=C/CCCC(=O)O[C@H](c2ccccc2)CNC1=O)NCc1ccc(Cl)cc1,Non-toxic,ECmax [6]: 93%
inactive,Dose-dependent effect,O=C(C[C@H]1C/C=C/CCC(=O)OCCNC1=O)NCc1ccc(Cl)cc1,Non-toxic,ECmax [6]: 50%
inactive,Dose-dependent effect,O=C(C[C@@H]1C/C=C/CCCCC(=O)O[C@H](c2ccccc2)CNC1=O)NCc1ccc(Cl)cc1,Non-toxic,
inactive,Dose-dependent effect,O=C(C[C@@H]1C/C=C/CCC(=O)O[C@H](c2ccccc2)CNC1=O)NCc1ccc(Cl)cc1 [ROBOTNIKININ],Non-toxic,EC50 (Sonic hedgehog protein [7]): 4 µM; ECmax [6]: 91%
inactive,Dose-dependent effect,O=C(C[C@@H]1C/C=C/CCCC(=O)OCCNC1=O)NCc1ccc(Cl)cc1,Non-toxic,
inactive,Dose-dependent effect,O=C(C[C@@H]1C/C=C/CCC(=O)O[C@@H](c2ccccc2)CNC1=O)NCc1ccc(Cl)cc1,> 15.6 µM,ECmax [8]: 57%
inactive,Dose-dependent effect,O=C(C[C@H]1C/C=C/CCC(=O)O[C@@H](c2ccccc2)CNC1=O)NCc1ccc(Cl)cc1,Non-toxic,
inactive,Dose-dependent effect,O=C(C[C@@H]1C/C=C/CCC(=O)OCCNC1=O)NCc1ccc(Cl)cc1,Non-toxic,ECmax [6]: 55%
inactive,,O=C(C[C@H]1C/C=C/CCCCC(=O)O[C@@H](c2ccccc2)CNC1=O)NCc1ccc(Cl)cc1,Non-toxic,
inactive,Dose-dependent effect,O=C(C[C@@H]1C/C=C/CCCCC(=O)OCCNC1=O)NCc1ccc(Cl)cc1,Non-toxic,ECmax [6]: 70%
inactive,,O=C(C[C@H]1C/C=C/CCCC(=O)OCCNC1=O)NCc1ccc(Cl)cc1,Non-toxic,
inactive,Dose-dependent effect,O=C(C[C@@H]1C/C=C/CCCC(=O)O[C@@H](c2ccccc2)CNC1=O)NCc1ccc(Cl)cc1,Non-toxic,
inactive,Dose-dependent effect,O=C(C[C@H]1C/C=C/CCCC(=O)O[C@@H](c2ccccc2)CNC1=O)NCc1ccc(Cl)cc1,Non-toxic,Kd (Sonic hedgehog protein [5]): 3.1 µM
inactive,,O=C(C[C@H]1C/C=C/CCCCC(=O)O[C@H](c2ccccc2)CNC1=O)NCc1ccc(Cl)cc1,Non-toxic,inhibition (Sonic hedgehog protein [5]): inactive
inactive,Dose-dependent effect,O=C(C[C@@H]1C/C=C/CCCCC(=O)O[C@@H](c2ccccc2)CNC1=O)NCc1ccc(Cl)cc1,> 31 µM,
